Data published in the kinase profiling compilation of Christmann-Franck et al. (2016).

How the values were obtained:
[1] = target: ARAF (human) (UniProt P10398)
[2] = target: PRKDC (human) (UniProt P78527)
[3] = target: ATM (human) (UniProt Q13315)
[4] = target: CDK10 (human) (UniProt Q15131)
[5] = target: SGK223 (human) (UniProt Q86YV5)
[6] = target: TESK2 (human) (UniProt Q96S53)
[7] = target: PIK3C2B (human) (UniProt O00750)
[8] = target: LRRK2 (human) (UniProt Q5S007)
[9] = target: CDKL2 (human) (UniProt Q92772)

ATM (human), sequence (Q13315 whole entry, looked up): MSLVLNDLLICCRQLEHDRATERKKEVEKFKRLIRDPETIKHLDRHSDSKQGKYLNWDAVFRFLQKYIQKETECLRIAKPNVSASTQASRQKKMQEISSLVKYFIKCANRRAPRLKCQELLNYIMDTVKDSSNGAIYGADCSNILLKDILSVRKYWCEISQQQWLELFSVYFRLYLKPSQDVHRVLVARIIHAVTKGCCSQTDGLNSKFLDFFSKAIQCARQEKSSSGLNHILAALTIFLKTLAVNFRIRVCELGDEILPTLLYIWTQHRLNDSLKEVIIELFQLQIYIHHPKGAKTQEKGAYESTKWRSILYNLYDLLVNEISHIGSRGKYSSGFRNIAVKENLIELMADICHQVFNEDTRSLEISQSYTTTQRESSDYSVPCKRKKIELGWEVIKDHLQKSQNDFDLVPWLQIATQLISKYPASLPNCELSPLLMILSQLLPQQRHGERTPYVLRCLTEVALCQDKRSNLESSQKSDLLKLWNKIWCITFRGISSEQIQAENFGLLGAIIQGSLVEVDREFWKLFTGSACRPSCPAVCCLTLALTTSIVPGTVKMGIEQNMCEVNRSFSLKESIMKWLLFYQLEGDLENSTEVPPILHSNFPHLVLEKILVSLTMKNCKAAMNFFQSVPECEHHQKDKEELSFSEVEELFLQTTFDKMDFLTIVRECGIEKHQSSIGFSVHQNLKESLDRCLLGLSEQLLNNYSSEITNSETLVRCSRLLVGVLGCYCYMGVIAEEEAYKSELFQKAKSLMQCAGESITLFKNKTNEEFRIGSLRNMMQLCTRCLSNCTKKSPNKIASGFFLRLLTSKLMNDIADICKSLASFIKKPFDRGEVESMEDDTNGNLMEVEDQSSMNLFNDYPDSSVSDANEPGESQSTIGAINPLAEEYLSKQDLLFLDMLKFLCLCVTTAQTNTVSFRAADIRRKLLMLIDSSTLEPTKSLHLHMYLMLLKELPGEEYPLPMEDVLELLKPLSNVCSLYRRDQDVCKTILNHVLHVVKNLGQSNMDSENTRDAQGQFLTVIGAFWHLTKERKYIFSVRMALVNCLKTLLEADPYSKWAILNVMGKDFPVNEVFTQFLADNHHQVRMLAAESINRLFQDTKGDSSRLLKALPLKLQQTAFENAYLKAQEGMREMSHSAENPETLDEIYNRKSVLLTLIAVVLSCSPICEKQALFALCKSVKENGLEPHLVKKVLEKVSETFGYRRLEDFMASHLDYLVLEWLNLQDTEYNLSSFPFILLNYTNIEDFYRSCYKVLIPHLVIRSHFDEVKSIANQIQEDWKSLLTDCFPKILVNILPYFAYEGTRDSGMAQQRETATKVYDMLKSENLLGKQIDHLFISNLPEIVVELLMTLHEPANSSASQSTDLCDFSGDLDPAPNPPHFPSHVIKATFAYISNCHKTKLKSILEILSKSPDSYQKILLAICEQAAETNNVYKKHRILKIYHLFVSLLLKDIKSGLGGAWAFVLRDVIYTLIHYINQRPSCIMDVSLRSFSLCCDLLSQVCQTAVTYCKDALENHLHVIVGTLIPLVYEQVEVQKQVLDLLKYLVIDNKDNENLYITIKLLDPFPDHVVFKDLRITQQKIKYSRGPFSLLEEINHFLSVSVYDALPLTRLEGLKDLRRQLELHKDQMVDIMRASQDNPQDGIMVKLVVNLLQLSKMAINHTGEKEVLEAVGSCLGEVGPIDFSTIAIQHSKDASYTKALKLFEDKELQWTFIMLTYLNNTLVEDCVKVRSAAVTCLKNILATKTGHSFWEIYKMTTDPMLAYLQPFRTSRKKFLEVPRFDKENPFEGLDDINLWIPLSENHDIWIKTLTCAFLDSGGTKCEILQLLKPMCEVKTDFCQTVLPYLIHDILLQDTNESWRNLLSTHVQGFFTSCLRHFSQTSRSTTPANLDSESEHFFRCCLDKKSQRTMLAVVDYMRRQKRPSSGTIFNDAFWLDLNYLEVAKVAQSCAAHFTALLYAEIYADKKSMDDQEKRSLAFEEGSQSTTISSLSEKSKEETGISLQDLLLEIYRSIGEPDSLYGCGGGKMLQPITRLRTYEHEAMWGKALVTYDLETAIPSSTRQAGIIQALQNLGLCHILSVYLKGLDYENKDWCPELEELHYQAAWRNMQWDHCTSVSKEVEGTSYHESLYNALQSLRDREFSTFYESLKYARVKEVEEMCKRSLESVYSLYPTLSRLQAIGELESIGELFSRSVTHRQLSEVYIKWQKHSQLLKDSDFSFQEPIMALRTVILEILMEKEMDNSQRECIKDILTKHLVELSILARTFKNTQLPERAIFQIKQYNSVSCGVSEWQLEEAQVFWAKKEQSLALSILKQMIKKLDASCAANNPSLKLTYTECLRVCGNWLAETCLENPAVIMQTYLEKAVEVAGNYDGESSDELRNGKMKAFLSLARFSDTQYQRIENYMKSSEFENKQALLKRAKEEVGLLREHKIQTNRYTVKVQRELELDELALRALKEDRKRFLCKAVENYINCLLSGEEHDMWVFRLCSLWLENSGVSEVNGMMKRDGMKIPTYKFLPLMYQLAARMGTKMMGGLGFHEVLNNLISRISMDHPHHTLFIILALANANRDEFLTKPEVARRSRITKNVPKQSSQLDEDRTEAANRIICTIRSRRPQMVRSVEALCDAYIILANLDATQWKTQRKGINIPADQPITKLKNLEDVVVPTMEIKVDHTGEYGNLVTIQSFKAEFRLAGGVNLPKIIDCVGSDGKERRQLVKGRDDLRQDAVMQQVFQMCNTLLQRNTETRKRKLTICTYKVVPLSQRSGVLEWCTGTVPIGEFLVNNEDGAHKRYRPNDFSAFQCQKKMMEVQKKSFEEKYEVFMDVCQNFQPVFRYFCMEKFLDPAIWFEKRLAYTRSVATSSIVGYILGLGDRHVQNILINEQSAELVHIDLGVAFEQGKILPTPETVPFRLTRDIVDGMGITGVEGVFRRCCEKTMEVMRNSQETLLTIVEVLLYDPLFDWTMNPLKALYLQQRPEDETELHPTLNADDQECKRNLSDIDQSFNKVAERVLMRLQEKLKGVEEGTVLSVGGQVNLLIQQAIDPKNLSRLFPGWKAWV
SGK223 (human), sequence (Q86YV5 whole entry, looked up): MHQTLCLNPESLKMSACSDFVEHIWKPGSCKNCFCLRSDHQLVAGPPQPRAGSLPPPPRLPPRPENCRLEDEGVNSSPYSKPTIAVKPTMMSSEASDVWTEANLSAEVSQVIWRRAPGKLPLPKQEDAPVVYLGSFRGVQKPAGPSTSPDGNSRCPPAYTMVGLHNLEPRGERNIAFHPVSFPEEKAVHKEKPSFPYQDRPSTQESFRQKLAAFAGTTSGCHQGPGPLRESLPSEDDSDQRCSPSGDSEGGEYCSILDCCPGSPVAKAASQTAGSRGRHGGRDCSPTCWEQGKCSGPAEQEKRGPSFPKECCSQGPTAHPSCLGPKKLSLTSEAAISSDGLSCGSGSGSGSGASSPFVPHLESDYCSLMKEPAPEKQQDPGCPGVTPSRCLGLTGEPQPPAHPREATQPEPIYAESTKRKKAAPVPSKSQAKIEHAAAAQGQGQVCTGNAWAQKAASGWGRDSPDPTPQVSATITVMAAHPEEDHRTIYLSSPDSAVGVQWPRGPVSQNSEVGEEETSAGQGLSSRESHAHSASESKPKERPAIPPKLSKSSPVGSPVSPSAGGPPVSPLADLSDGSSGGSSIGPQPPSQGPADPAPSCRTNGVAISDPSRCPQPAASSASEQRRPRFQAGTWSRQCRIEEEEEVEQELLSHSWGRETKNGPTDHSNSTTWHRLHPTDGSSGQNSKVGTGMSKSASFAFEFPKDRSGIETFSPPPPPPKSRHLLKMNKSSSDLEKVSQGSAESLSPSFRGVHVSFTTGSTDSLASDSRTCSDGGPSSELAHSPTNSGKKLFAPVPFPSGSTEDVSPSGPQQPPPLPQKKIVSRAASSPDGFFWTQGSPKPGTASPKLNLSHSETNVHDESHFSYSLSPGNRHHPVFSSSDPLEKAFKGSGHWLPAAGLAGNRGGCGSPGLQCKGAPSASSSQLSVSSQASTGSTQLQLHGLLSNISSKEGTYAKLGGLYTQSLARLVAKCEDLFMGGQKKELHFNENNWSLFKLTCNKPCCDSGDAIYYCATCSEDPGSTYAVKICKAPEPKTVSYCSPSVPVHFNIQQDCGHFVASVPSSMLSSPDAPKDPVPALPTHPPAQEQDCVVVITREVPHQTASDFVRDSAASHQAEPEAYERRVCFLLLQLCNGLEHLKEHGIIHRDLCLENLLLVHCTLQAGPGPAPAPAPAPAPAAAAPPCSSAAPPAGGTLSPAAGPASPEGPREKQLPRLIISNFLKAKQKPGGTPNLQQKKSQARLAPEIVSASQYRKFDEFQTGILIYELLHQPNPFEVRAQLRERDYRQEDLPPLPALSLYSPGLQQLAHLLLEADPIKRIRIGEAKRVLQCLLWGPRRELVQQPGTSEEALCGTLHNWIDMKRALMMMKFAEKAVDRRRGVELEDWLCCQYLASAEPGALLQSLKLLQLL
ARAF (human), sequence (P10398 whole entry, looked up): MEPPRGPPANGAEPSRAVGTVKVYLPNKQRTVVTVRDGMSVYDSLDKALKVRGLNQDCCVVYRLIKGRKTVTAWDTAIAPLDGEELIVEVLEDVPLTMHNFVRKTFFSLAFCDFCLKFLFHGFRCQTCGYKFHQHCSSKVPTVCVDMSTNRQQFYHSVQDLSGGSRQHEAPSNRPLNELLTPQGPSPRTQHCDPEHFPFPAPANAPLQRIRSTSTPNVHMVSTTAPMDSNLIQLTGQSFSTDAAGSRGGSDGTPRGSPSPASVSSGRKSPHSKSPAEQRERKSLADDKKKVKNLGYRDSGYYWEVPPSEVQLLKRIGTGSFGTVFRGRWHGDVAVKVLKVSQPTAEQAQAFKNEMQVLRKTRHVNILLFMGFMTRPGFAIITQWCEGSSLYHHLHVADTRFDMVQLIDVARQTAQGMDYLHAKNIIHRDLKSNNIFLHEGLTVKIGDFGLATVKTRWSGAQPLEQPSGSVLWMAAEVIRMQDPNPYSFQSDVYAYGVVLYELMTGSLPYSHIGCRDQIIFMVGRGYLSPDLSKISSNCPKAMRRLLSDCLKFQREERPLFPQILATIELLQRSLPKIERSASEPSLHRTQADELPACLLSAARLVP

SMILES	IC50 [1] [µM]	IC50 [2] [µM]	IC50 [3] [µM]	IC50 [4] [µM]	IC50 [5] [µM]	IC50 [6] [µM]	IC50 [7] [µM]	IC50 [8] [µM]	IC50 [9] [µM]
CN[C@@H]1C[C@H]2O[C@@](C)([C@@H]1OC)n1c3ccccc3c3c4c(c5c6ccccc6n2c5c31)C(=O)NC4	> 10	> 10	> 10	0.87	5.05				
CC(C)(C)c1cnc(CSc2cnc(NC(=O)C3CCNCC3)s2)o1		> 10	> 10			> 10			
CC[C@@H](CO)Nc1nc(NCc2ccccc2)c2ncn(C(C)C)c2n1		> 10	> 10		> 10		> 10	> 10	> 10
